Tests used:
[1] = test system: KB; assay: Cytotoxicity against human KB cells by sulforhodamine B assay; type: functional, cell-based
[2] = test system: Plasmodium falciparum; assay: Antiplasmodial activity against multidrug-resistant Plasmodium falciparum K1 infected in human RBC incubated for 18 to 20 hrs by microdilution radioisotope method; type: functional, organism-based
[3] = test system: Vero; assay: Cytotoxicity against African green monkey Vero cells by sulforhodamine B assay; type: cell-based; settings: Chlorocebus sabaeus
[4] = test system: Plasmodium falciparum; assay: Antiplasmodial activity against chloroquine/antifolate-sensitive Plasmodium falciparum TM4 infected in human RBC incubated for 18 to 20 hrs by microdilution radioisotope method; type: functional, organism-based

Compound | IC50 [1] [µM] | IC50 [2] [µM] | IC50 [3] [µM] | IC50 [4] [µM]
COc1cc(-c2oc3cc(OC)c(OC)c(O)c3c(=O)c2OC)ccc1O [CHRYSOSPLENOL B] | > 47.8 | 12.4 | > 47.8 | 39.5
COc1cc(O)c2c(=O)c(OC)c(-c3ccc4c(c3)OCO4)oc2c1 | > 47.8 | > 47.8 | > 47.8 | > 47.8
COc1cc([C@H]2OC[C@H]3[C@@H]2CO[C@@H]3c2cc(OC)c(O)c(OC)c2)cc(OC)c1O [SYRINGARESINOL] | > 47.8 | > 47.8 | > 47.8 | > 47.8
CC1(C)N=C(N)N=C(N)N1c1ccc(Cl)cc1 [CYCLOGUANIL] |  | 3.2 |  | 
O=C(/C=C/c1ccc(O)cc1)NCCc1ccc(O)cc1 [N-P-COUMAROYL TYRAMINE] | > 47.8 | > 47.8 | > 47.8 | > 47.8
COc1cc(/C=C/C(=O)NCCc2ccc(O)cc2)ccc1O [N-TRANS-FERULOYL TYRAMINE] | > 47.8 | 54.9 | > 47.8 | > 47.8
COc1cc2c(c(OC)c1O)CCn1c-2cc2ccc(O)c(O)c2c1=O | > 47.8 | 32.4 | > 47.8 | 41.4
Cc1c2ccncc2c(C)c2c1[nH]c1ccccc12 [ELLIPTECINE] |  |  | 0.4 | 
CCc1nc(N)nc(N)c1-c1ccc(Cl)cc1 [PYRIMETHAMINE] |  | 31 |  | 
O=C(/C=C/c1ccc(O)c(O)c1)NCCc1ccc(O)cc1 | > 47.8 | 23.8 | > 47.8 | > 47.8
COc1cccc2c1C(=O)c1c(O)c3c(c(O)c1C2=O)C[C@@](O)(C(=O)CO)C[C@@H]3O[C@H]1C[C@H](N)[C@H](O)[C@H](C)O1 [DOXORUBICIN] | 1 |  |  | 
COc1cc2c(c(OC)c1OC)CCn1c-2cc2ccc(O)c(O)c2c1=O | > 47.8 | 10.8 | > 47.8 | 25.6
COc1cc2c(c(OC)c1O)CCN1C(=O)c3c(ccc(O)c3O)C[C@@H]21 | > 47.8 | 26.1 | > 47.8 | 38.1
CC(C)=CCC/C(C)=C/[C@H]1OC(=O)C[C@]12C[C@H](O)C=CC2=O | 10.2 | 9.1 | 13.5 | 11.1
COc1cc2c(c(O)c1OC)CCn1c-2cc2ccc(O)c(O)c2c1=O | > 47.8 | 26.3 | > 47.8 | 19.3
COc1cc(OC)c2c(=O)c(OC)c(-c3ccc(O)c(OC)c3)oc2c1 | > 47.8 | 27.9 | > 47.8 | 31.5
COc1cc(O)c2c(=O)c(OC)c(-c3ccc(O)c(OC)c3)oc2c1 [PACHYPODOL] | > 47.8 | > 47.8 | > 47.8 | > 47.8
COc1cc2c(c(OC)c1OC)CCN1C(=O)c3c(ccc(O)c3O)C[C@@H]21 | > 47.8 | 29.1 | > 47.8 | > 47.8

Source: ChEMBL document CHEMBL4425090, “Antimalarial Oxoprotoberberine Alkaloids from the Leaves of Miliusa cuneata” (J Nat Prod, 2016)
